# ChEMBL document CHEMBL1208785, “Discovery of novel alpha7 nicotinic receptor antagonists” (Bioorg Med Chem Lett, 2010)
# Target: Neuronal acetylcholine receptor subunit alpha-7 (Rattus norvegicus) (UniProt Q05941)
# Assay: Displacement of [125I]alpha-bungarotoxin from alpha7 nicotinic acetylcholine receptor in rat brain membrane at 10 uM
# Type: cell membranes
# Sequence of Neuronal acetylcholine receptor subunit alpha-7 (Rattus norvegicus) (Q05941 whole entry): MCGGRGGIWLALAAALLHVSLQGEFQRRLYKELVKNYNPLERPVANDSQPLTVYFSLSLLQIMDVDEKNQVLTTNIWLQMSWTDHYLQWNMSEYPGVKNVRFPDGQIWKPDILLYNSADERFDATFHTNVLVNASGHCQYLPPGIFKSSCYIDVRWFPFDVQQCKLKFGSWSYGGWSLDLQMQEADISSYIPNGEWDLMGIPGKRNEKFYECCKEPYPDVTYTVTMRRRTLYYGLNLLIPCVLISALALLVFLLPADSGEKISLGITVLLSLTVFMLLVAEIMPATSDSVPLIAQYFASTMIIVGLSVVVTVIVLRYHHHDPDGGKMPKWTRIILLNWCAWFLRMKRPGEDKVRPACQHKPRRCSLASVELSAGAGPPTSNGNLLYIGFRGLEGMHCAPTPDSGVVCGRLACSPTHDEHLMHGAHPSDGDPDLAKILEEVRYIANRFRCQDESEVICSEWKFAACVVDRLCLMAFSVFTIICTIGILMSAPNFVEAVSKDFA
row,Compound,inhibition
1,O=C(NCC1CCN(Cc2ccccc2)CC1)c1cn(Cc2ccc3ccccc3c2)nn1,70.5%
2,COc1ccc(Cn2cc(C(=O)NCC3CCN(CCc4ccccc4)CC3)nn2)cc1,9.5%
3,COCCN1CCC(CNC(=O)c2cn(Cc3ccc(Cl)cc3)nn2)CC1,27.3%
4,CN1CCC(N(C)C(=O)c2cnn(-c3ccccc3-c3ccco3)c2C2CC2)CC1,10.5%
5,O=C(NCC1CCN(C2CCCC2)CC1)c1cn(Cc2ccccc2Cl)nn1,21.6%
6,Cc1c(C(=O)NC2CCN(Cc3ccccc3)CC2)cnn1-c1ccc(F)cc1,50%
7,CCCc1c(C(=O)NC2CCN(C)CC2)cnn1-c1ccccc1,3.1%
8,Cc1c(C(=O)N(C)C2CCN(C)CC2)cnn1-c1ccc(Cl)cc1,13.5%
9,Cc1c(C(=O)NC2CCN(Cc3ccccc3)CC2)cnn1-c1ccc(Cl)cc1,64.1%
10,Cc1ccc(-c2c(C(=O)N(C)C3CCN(C)CC3)cnn2-c2ccccc2)cc1,12.1%
11,Cc1ccc(-c2c(C(=O)NC3CCN(C)CC3)cnn2-c2ccccc2)cc1,23.4%
12,CCCc1c(C(=O)NC2CCNCC2)cnn1-c1ccccc1,1%
13,Cc1ccccc1Cn1cc(C(=O)NCC2CCN(CCc3ccccc3)CC2)nn1,25.2%
14,COCCN1CCC(CN(C)C(=O)c2cn(Cc3ccccc3Cl)nn2)CC1,43%
15,O=C(NCC1CCN(CCc2ccccc2)CC1)c1cn(Cc2ccc(Cl)cc2)nn1,18.3%
16,Cc1c(C(=O)N(C)C2CCN(C)CC2)cnn1-c1ccc(F)cc1,11.9%
17,CC(C)CN1CCC(CN(C)C(=O)c2cn(Cc3ccccc3Cl)nn2)CC1,72.3%
18,O=C(NCC1CCN(CCc2ccccc2)CC1)c1cn(Cc2ccccc2Cl)nn1,23.4%
19,CCCc1c(C(=O)NC2CCN(Cc3ccccc3)CC2)cnn1-c1ccccc1,83.8%
20,CC(C)CN1CCC(CN(C)C(=O)c2cn(Cc3cc(F)ccc3F)nn2)CC1,59.2%
